In PubChem BioAssay (NCI):
Values joined by “and” are separate entries in the source; they are usually repeats but may differ in a detail not shown here. Equal values may be shown once.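 Five compound concentrations were applied to cells in 96-well plates for 48 hours; endpoints were derived by simple linear interpolation of the resulting dose-response curve. GI50 is the concentration that inhibits growth by half. The concentration for full growth arrest is given as TGI.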

Key:
Experiment in all cases: NCI tumour cell line growth inhibition, 48 h
786-0 renal = system: 786-0 renal
A498 renal = system: A498 renal
A549 NSCLC = system: A549 NSCLC
ACHN renal = system: ACHN renal
CAKI-1 renal = system: CAKI-1 renal
CCRF-CEM leukemia = system: CCRF-CEM leukemia
COLO 205 colon = system: COLO 205 colon
DLD-1 colon = system: DLD-1 colon
DMS 114 small cell lung = system: DMS 114 small cell lung
DMS 273 small cell lung = system: DMS 273 small cell lung
EKVX NSCLC = system: EKVX NSCLC
HCC-2998 colon = system: HCC-2998 colon
HL-60(TB) leukemia = system: HL-60(TB) leukemia
HOP-62 NSCLC = system: HOP-62 NSCLC
HOP-92 NSCLC = system: HOP-92 NSCLC
HT29 colon = system: HT29 colon
IGROV1 ovarian = system: IGROV1 ovarian
K-562 leukemia = system: K-562 leukemia
KM20L2 colon = system: KM20L2 colon
LOX IMVI melanoma = system: LOX IMVI melanoma
LXFL 529 NSCLC = system: LXFL 529 NSCLC
M14 melanoma = system: M14 melanoma
M19-MEL melanoma = system: M19-MEL melanoma
MALME-3M melanoma = system: MALME-3M melanoma
MOLT-4 leukemia = system: MOLT-4 leukemia
NCI-H23 lung = system: NCI-H23 lung
NCI-H460 lung = system: NCI-H460 lung
NCI-H522 lung = system: NCI-H522 lung
OVCAR-3 ovarian = system: OVCAR-3 ovarian
OVCAR-4 ovarian = system: OVCAR-4 ovarian
OVCAR-5 ovarian = system: OVCAR-5 ovarian
OVCAR-8 ovarian = system: OVCAR-8 ovarian
RPMI-8226 leukemia = system: RPMI-8226 leukemia
RXF 393 renal = system: RXF 393 renal
SF-268 CNS = system: SF-268 CNS
SF-295 CNS = system: SF-295 CNS
SF-539 CNS = system: SF-539 CNS
SK-MEL-2 melanoma = system: SK-MEL-2 melanoma
SK-MEL-28 melanoma = system: SK-MEL-28 melanoma
SK-MEL-5 melanoma = system: SK-MEL-5 melanoma
SK-OV-3 ovarian = system: SK-OV-3 ovarian
SN12C renal = system: SN12C renal
SNB-19 CNS = system: SNB-19 CNS
SNB-75 CNS = system: SNB-75 CNS
SNB-78 CNS = system: SNB-78 CNS
SW-620 colon = system: SW-620 colon
TK-10 renal = system: TK-10 renal
U251 CNS = system: U251 CNS
UACC-257 melanoma = system: UACC-257 melanoma
UACC-62 melanoma = system: UACC-62 melanoma
UO-31 renal = system: UO-31 renal
XF 498 CNS = system: XF 498 CNS
HCT-116 colon = system: HCT-116 colon
HCT-15 colon = system: HCT-15 colon
KM12 colon = system: KM12 colon
SR leukemia = system: SR leukemia
BT-549 breast = system: BT-549 breast
HOP-18 NSCLC = system: HOP-18 NSCLC
MDA-MB-231 breast = system: MDA-MB-231 breast
MDA-MB-435 = system: MDA-MB-435
MDA-N = system: MDA-N
P388/ADR leukemia = system: P388/ADR leukemia
T-47D breast = system: T-47D breast
NCI-H226 lung = system: NCI-H226 lung

## CCC1(Br)C(=O)NC(=O)N(C2CC(O)C(CO)O2)C1N=[N+]=[N-] (stereo unspecified)
786-0 renal
  TGI: > 100 µM
A498 renal
  TGI: > 100 µM
A549 NSCLC
  TGI: > 100 µM
ACHN renal
  TGI: > 100 µM
CAKI-1 renal
  TGI: > 100 µM
CCRF-CEM leukemia
  TGI: > 100 µM
COLO 205 colon
  TGI: > 100 µM
DLD-1 colon
  TGI: > 100 µM
DMS 114 small cell lung
  TGI: > 100 µM
DMS 273 small cell lung
  TGI: > 100 µM
EKVX NSCLC
  TGI: > 100 µM
HCC-2998 colon
  TGI: > 100 µM
HL-60(TB) leukemia
  TGI: > 100 µM
HOP-62 NSCLC
  TGI: > 100 µM
HOP-92 NSCLC
  TGI: > 100 µM
HT29 colon
  TGI: > 100 µM
IGROV1 ovarian
  TGI: > 100 µM
K-562 leukemia
  TGI: > 100 µM
KM20L2 colon
  TGI: > 100 µM
LOX IMVI melanoma
  TGI: > 100 µM
LXFL 529 NSCLC
  TGI: > 100 µM
M14 melanoma
  TGI: > 100 µM
M19-MEL melanoma
  TGI: > 100 µM
MALME-3M melanoma
  TGI: > 100 µM
MOLT-4 leukemia
  TGI: > 100 µM
NCI-H23 lung
  TGI: > 100 µM
NCI-H460 lung
  TGI: > 100 µM
NCI-H522 lung
  TGI: > 100 µM
OVCAR-3 ovarian
  TGI: > 100 µM
OVCAR-4 ovarian
  TGI: > 100 µM
OVCAR-5 ovarian
  TGI: > 100 µM
OVCAR-8 ovarian
  TGI: > 100 µM
RPMI-8226 leukemia
  TGI: > 100 µM
RXF 393 renal
  TGI: > 100 µM
SF-268 CNS
  TGI: > 100 µM
SF-295 CNS
  TGI: > 100 µM
SF-539 CNS
  TGI: > 100 µM
SK-MEL-2 melanoma
  TGI: > 100 µM
SK-MEL-28 melanoma
  TGI: > 100 µM
SK-MEL-5 melanoma
  TGI: > 100 µM
SK-OV-3 ovarian
  TGI: > 100 µM
SN12C renal
  TGI: > 100 µM
SNB-19 CNS
  TGI: > 100 µM
SNB-75 CNS
  TGI: > 100 µM
SNB-78 CNS
  TGI: > 100 µM
SW-620 colon
  TGI: > 100 µM
TK-10 renal
  TGI: > 100 µM
U251 CNS
  TGI: > 100 µM
UACC-257 melanoma
  TGI: > 100 µM
UACC-62 melanoma
  TGI: > 100 µM
UO-31 renal
  TGI: > 100 µM
XF 498 CNS
  TGI: > 100 µM

## CC(C)c1cccc(C(C)C)c1NC(=O)C(=O)C(C(=O)c1ccccc1-c1ccccc1)C1OC(=O)c2ccccc21 (stereo unspecified)
786-0 renal
  TGI: 36.8 µM
A549 NSCLC
  TGI: > 100 µM
ACHN renal
  TGI: > 100 µM
CAKI-1 renal
  TGI: 76.5 µM
CCRF-CEM leukemia
  TGI: 68.5 µM
COLO 205 colon
  TGI: 81.5 µM
DMS 114 small cell lung
  TGI: 49.2 µM
DMS 273 small cell lung
  TGI: 60 µM
HCC-2998 colon
  TGI: 32.5 µM
HCT-116 colon
  TGI: 73.3 µM
HCT-15 colon
  TGI: 44.5 µM
HT29 colon
  TGI: 43.9 µM
IGROV1 ovarian
  TGI: 74.7 µM
K-562 leukemia
  TGI: 68.3 µM
KM12 colon
  TGI: 32.9 µM
KM20L2 colon
  TGI: 50.8 µM
LOX IMVI melanoma
  TGI: 31.1 µM
LXFL 529 NSCLC
  TGI: 34.6 µM
M19-MEL melanoma
  TGI: 63.6 µM
MALME-3M melanoma
  TGI: 33.9 µM
MOLT-4 leukemia
  TGI: 74.1 µM
NCI-H23 lung
  TGI: 3.32 µM
NCI-H460 lung
  TGI: 36.5 µM
NCI-H522 lung
  TGI: 30.5 µM
OVCAR-4 ovarian
  TGI: 45.9 µM
OVCAR-5 ovarian
  TGI: 35.4 µM
OVCAR-8 ovarian
  TGI: 35 µM
RPMI-8226 leukemia
  TGI: > 100 µM
RXF 393 renal
  TGI: 27 µM
SF-268 CNS
  TGI: 61.5 µM
SF-295 CNS
  TGI: 37.6 µM
SF-539 CNS
  TGI: 27.9 µM
SK-MEL-2 melanoma
  TGI: 32.1 µM
SK-MEL-28 melanoma
  TGI: 71.9 µM
SK-MEL-5 melanoma
  TGI: 29.5 µM
SN12C renal
  TGI: 49.9 µM
SNB-19 CNS
  TGI: 40.1 µM
SNB-78 CNS
  TGI: 73.2 µM
SR leukemia
  TGI: > 100 µM
SW-620 colon
  TGI: 37.8 µM
TK-10 renal
  TGI: 46.1 µM
U251 CNS
  TGI: 25.4 µM
UACC-257 melanoma
  TGI: 29.9 µM
UACC-62 melanoma
  TGI: 44.1 µM
UO-31 renal
  TGI: 36.5 µM
XF 498 CNS
  TGI: 26 µM

## COC1C(O)CC(OC2CC(Oc3cc4cc5c(c(O)c4c(O)c3C)C(=O)[C@@H](OC3CC(OC4CC(OC6CC(C)(O)C(OC(C)=O)C(C)O6)C(O)C(C)O4)C(O)C(C)O3)[C@H]([C@H](OC)C(=O)[C@@H](O)[C@@H](C)O)C5)OC(C)C2OC(C)=O)OC1C (stereo partly specified)
786-0 renal
  GI50: 0.000213 µM
BT-549 breast
  TGI: 0.0597 nM
DMS 114 small cell lung
  GI50: 0.00328 µM
HOP-18 NSCLC
  GI50: 0.0164 nM
M14 melanoma
  GI50: 0.0189 nM
  TGI: 0.000105 µM
MDA-MB-231 breast
  GI50: 0.0101 µM
  TGI: 0.000467 µM and < 0.0234 µM
MDA-MB-435
  TGI: 0.000167 µM
MDA-N
  TGI: 0.000192 µM and < 0.0107 µM
P388/ADR leukemia
  GI50: 0.106 µM
  TGI: 9.49 µM and 8.82 µM
SR leukemia
  GI50: 0.0252 nM
  TGI: 0.000152 µM
T-47D breast
  GI50: 0.0356 nM
  TGI: 0.00182 µM and < 0.215 µM
TK-10 renal
  GI50: < 0.0155 µM
  TGI: 0.0033 µM

## N=C(N)SCc1cn2ccccc2n1
786-0 renal
  TGI: > 100 µM
A549 NSCLC
  TGI: > 100 µM
ACHN renal
  TGI: > 100 µM
CAKI-1 renal
  TGI: > 100 µM
CCRF-CEM leukemia
  TGI: > 100 µM
COLO 205 colon
  TGI: > 100 µM
DLD-1 colon
  TGI: > 100 µM
DMS 114 small cell lung
  TGI: > 100 µM
DMS 273 small cell lung
  TGI: > 100 µM
EKVX NSCLC
  TGI: > 100 µM
HCC-2998 colon
  TGI: > 100 µM
HCT-116 colon
  TGI: > 100 µM
HCT-15 colon
  TGI: > 100 µM
HL-60(TB) leukemia
  TGI: > 100 µM
HOP-18 NSCLC
  TGI: > 100 µM
HOP-62 NSCLC
  TGI: > 100 µM
HT29 colon
  TGI: > 100 µM
K-562 leukemia
  TGI: > 100 µM
KM12 colon
  TGI: > 100 µM
LOX IMVI melanoma
  TGI: > 100 µM
M14 melanoma
  TGI: > 100 µM
M19-MEL melanoma
  TGI: > 100 µM
MALME-3M melanoma
  TGI: > 100 µM
MOLT-4 leukemia
  TGI: > 100 µM
NCI-H226 lung
  TGI: > 100 µM
NCI-H23 lung
  TGI: > 100 µM
NCI-H460 lung
  TGI: > 100 µM
NCI-H522 lung
  TGI: > 100 µM
OVCAR-3 ovarian
  TGI: > 100 µM
OVCAR-4 ovarian
  TGI: > 100 µM
OVCAR-5 ovarian
  TGI: > 100 µM
OVCAR-8 ovarian
  TGI: > 100 µM
RPMI-8226 leukemia
  TGI: > 100 µM
SF-268 CNS
  TGI: > 100 µM
SF-295 CNS
  TGI: > 100 µM
SF-539 CNS
  TGI: > 100 µM
SK-MEL-2 melanoma
  TGI: > 100 µM
SK-MEL-28 melanoma
  TGI: > 100 µM
SK-MEL-5 melanoma
  TGI: > 100 µM
SN12C renal
  TGI: > 100 µM
SNB-19 CNS
  TGI: > 100 µM
SNB-75 CNS
  TGI: > 100 µM
SNB-78 CNS
  TGI: > 100 µM
SR leukemia
  TGI: > 100 µM
SW-620 colon
  TGI: > 100 µM
TK-10 renal
  TGI: > 100 µM
U251 CNS
  TGI: > 100 µM
UACC-257 melanoma
  TGI: > 100 µM
UO-31 renal
  TGI: > 100 µM
XF 498 CNS
  TGI: > 100 µM
